This passage reports IC50 results from patent US10351575B2, “Bicyclic urea, thiourea, guanidine and cyanoguanidine compounds useful for the treatment of pain” (Array BioPharma Inc., priority 2012, dated 2019).

Each structure is given as a SMILES string.

His-tagged recombinant human TrkA, sequence (P04629 440-796): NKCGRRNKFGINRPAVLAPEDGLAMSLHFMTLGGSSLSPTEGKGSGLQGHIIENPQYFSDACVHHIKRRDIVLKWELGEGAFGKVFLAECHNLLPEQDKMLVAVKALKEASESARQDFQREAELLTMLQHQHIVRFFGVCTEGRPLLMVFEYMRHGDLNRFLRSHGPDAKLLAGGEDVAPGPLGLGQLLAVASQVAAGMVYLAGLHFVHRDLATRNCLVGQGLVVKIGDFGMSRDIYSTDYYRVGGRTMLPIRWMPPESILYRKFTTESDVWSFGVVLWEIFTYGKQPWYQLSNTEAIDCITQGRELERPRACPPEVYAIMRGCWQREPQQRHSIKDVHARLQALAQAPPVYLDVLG

For this test, the target named is His-tagged recombinant human TrkA (Homo sapiens (Human), UniProt P04629). Briefly: TrkA LanthaScreen Eu Kinase Binding Assay. The following applies: averaged IC50; TR-FRET binding, 60 min, 22° C.; read-out: TrkA Enzyme IC50. In a few lines:
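Three-fold compound dilutions (2% DMSO final) were incubated 60 min at 22° C. with 5 nM His-TrkA cytoplasmic domain, tracer 236 (4 nM), biotinylated anti-His (2 nM) and europium streptavidin (2 nM) in MOPS pH 7.5 buffer. Emission ratio 665/615 gave percent of control; four-parameter fit yielded IC50.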
On the technique in general: TR-FRET usually uses a lanthanide donor and a delayed reading to cut background.
With `Cc1c(-c2cnn(C)c2)nn(-c2ccccc2)c1NC(=O)NC1CCC(=O)c2ccccc21` (stereo not drawn) [Example 36, 1-(1′,4-dimethyl-1-phenyl-1H,1′H-[3,4′-bipyrazol]-5-yl)-3-(4-oxo-1,2,3,4-tetrahydronaphthalen-1-yl)urea], the IC50 (commonly the concentration needed to halve the response being measured) was in the range of 100 to 1000 nM.

With `Cc1c(-c2cnn(C)c2)nn(-c2ccccc2)c1NC(=O)NC1CCC(C)(O)c2ccccc21` (stereo not drawn) [Example 37, 1-(1′,4-dimethyl-1-phenyl-1H,1′H-[3,4′-bipyrazol]-5-yl)-3-(4-hydroxy-4-methyl-1,2,3,4-tetrahydronaphthalen-1-yl)urea], the IC50 is 100 to 1000 nM.

Take `Cc1c(-c2cnn(C)c2)nn(-c2ccccc2)c1NC(=O)Nc1cn(CC(F)(F)F)c(=O)c2ccccc12` [Example 38, 1-(1′,4-dimethyl-1-phenyl-1H,1′H-[3,4′-bipyrazol]-5-yl)-3-(1-oxo-2-(2,2,2-trifluoroethyl)-1,2-dihydroisoquinolin-4-yl)urea]: the half-inhibitory concentration (IC50) fell in the range of 100 to 1000 nM.

Consider `COc1nn(-c2ccccc2)c(NC(=O)NC2CCN(C)c3ccccc32)c1C` (stereo not drawn) [Example 39, 1-(3-methoxy-4-methyl-1-phenyl-1H-pyrazol-5-yl)-3-(1-methyl-1,2,3,4-tetrahydroquinolin-4-yl)urea], for which the IC50 is under 100 nM.

With `Cc1c(-c2cnn(C)c2)nn(-c2ccccc2)c1NC(=O)NC1CCN(C)c2ccccc21` (stereo not drawn) [Example 40, 1-(1′,4-dimethyl-1-phenyl-1H,1′H-[3,4′-bipyrazol]-5-yl)-3-(1-methyl-1,2,3,4-tetrahydroquinolin-4-yl)urea], the IC50 was in the range of 100 to 1000 nM.

Consider `Cc1c(-c2ccc(=O)n(C)c2)nn(-c2ccccc2)c1NC(=O)NC1CCN(C)c2ccccc21` (stereo not drawn) [Example 41, 1-(1-methyl-1,2,3,4-tetrahydroquinolin-4-yl)-3-(4-methyl-3-(1-methyl-6-oxo-1,6-dihydropyridin-3-yl)-1-phenyl-1H-pyrazol-5-yl)urea], for which the IC50 is under 100 nM.

Turning to `CCN1CCC(NC(=O)Nc2c(C)c(-c3ccc(=O)n(C)c3)nn2-c2ccccc2)c2ccccc21` (stereo not drawn) [Example 42, 1-(1-ethyl-1,2,3,4-tetrahydroquinolin-4-yl)-3-(4-methyl-3-(1-methyl-6-oxo-1,6-dihydropyridin-3-yl)-1-phenyl-1H-pyrazol-5-yl)urea], the IC50 is under 100 nM.

Consider `Cc1c(-c2ccc(=O)n(C)c2)nn(-c2ccccc2)c1NC(=O)NC1CCN(C)c2c(F)cccc21` (stereo not drawn) [Example 43, 1-(8-fluoro-1-methyl-1,2,3,4-tetrahydroquinolin-4-yl)-3-(4-methyl-3-(1-methyl-6-oxo-1,6-dihydropyridin-3-yl)-1-phenyl-1H-pyrazol-5-yl)urea], for which the IC50 fell in the range of 100 to 1000 nM.

On to `Cc1c(-c2ccc(=O)n(C)c2)nn(-c2ccccc2)c1NC(=O)NC1CCN(C)c2c(F)cc(Cl)cc21` (stereo not drawn) [Example 44, 1-(6-chloro-8-fluoro-1-methyl-1,2,3,4-tetrahydroquinolin-4-yl)-3-(4-methyl-3-(1-methyl-6-oxo-1,6-dihydropyridin-3-yl)-1-phenyl-1H-pyrazol-5-yl)urea], for which the concentration for half-maximal inhibition (IC50) was under 100 nM.

In the case of `CCN1CCC(NC(=O)Nc2c(C)c(-c3ccc(=O)n(C)c3)nn2-c2ccccc2)c2cc(Cl)ccc21` (stereo not drawn) [Example 45, 1-(6-chloro-1-ethyl-1,2,3,4-tetrahydroquinolin-4-yl)-3-(4-methyl-3-(1-methyl-6-oxo-1,6-dihydropyridin-3-yl)-1-phenyl-1H-pyrazol-5-yl)urea], the half-maximal inhibitory concentration (IC50) was under 100 nM.

As to `CCN1CCC(NC(=O)Nc2c(C)c(OC)nn2-c2ccccc2)c2cc(Cl)ccc21` (stereo not drawn) [Example 46, 1-(6-chloro-1-ethyl-1,2,3,4-tetrahydroquinolin-4-yl)-3-(3-methoxy-4-methyl-1-phenyl-1H-pyrazol-5-yl)urea], the IC50 is under 100 nM.

Consider `CO[C@H]1Cc2ccccc2[C@@H]1NC(=O)Nc1c2c(nn1-c1ccccc1)CCC2` [Example 47, 1-((1S,2S)-2-methoxy-2,3-dihydro-1H-inden-1-yl)-3-(2-phenyl-2,4,5,6-tetrahydrocyclopenta[c]pyrazol-3-yl)urea], for which the IC50 was in the range of 100 to 1000 nM.

For the molecule `COCCO[C@H]1Cc2ccccc2[C@@H]1NC(=O)Nc1c2c(nn1-c1ccccc1)CCC2` [Example 48, 1-((1S,2S)-2-(2-methoxyethoxy)-2,3-dihydro-1H-inden-1-yl)-3-(2-phenyl-2,4,5,6-tetrahydrocyclopenta[c]pyrazol-3-yl)urea], the IC50 fell in the range of 100 to 1000 nM.

Consider `CCOc1nn(-c2ccccc2)c(NC(=O)N[C@H]2c3ccccc3C[C@@H]2OCCOC)c1C` [Example 49, 1-(3-ethoxy-4-methyl-1-phenyl-1H-pyrazol-5-yl)-3-((1S,2S)-2-(2-methoxyethoxy)-2,3-dihydro-1H-inden-1-yl)urea], for which the half-maximal inhibitory concentration (IC50) was in the range of 100 to 1000 nM.

In the case of `COCCO[C@@H]1Cc2ccccc2[C@H]1NC(=O)Nc1c2c(nn1-c1ccccc1)CCC2` [Example 50, 1-((1R,2R)-2-(2-methoxyethoxy)-2,3-dihydro-1H-inden-1-yl)-3-(2-phenyl-2,4,5,6-tetrahydrocyclopenta[c]pyrazol-3-yl)urea], the IC50 fell in the range of 100 to 1000 nM.

For the molecule `COCCO[C@H]1Cc2ccccc2[C@@H]1NC(=O)Nc1c(C)c(-c2cnn(C)c2)nn1-c1ccccc1` [Example 51, 1-(1′,4-dimethyl-1-phenyl-1H,1′H-[3,4′-bipyrazol]-5-yl)-3-((1S,2S)-2-(2-methoxyethoxy)-2,3-dihydro-1H-inden-1-yl)urea], the IC50 was in the range of 100 to 1000 nM.

As to `COCCO[C@H]1Cc2ccccc2[C@@H]1NC(=O)Nc1c(Br)c(C)nn1-c1ccccc1` [Example 52, 1-(4-bromo-3-methyl-1-phenyl-1H-pyrazol-5-yl)-3-((1S,2S)-2-(2-methoxyethoxy)-2,3-dihydro-1H-inden-1-yl)urea], the IC50 fell in the range of 100 to 1000 nM.

With `CCOc1nn(-c2ccccc2)c(NC(=O)NC2CCc3ccccc32)c1C` (stereo not drawn) [Example 53, 1-(2,3-dihydro-1H-inden-1-yl)-3-(3-ethoxy-4-methyl-1-phenyl-1H-pyrazol-5-yl)urea], the concentration for half-maximal inhibition (IC50) lay in the range of 100 to 1000 nM.

Regarding `CCOc1nn(-c2ccccc2)c(NC(=O)N[C@H]2CCc3ccccc32)c1C` [Example 54, (S)-1-(2,3-dihydro-1H-inden-1-yl)-3-(3-ethoxy-4-methyl-1-phenyl-1H-pyrazol-5-yl)urea], the IC50 fell in the range of 100 to 1000 nM.

Turning to `CNC(=O)c1nn(-c2ccccc2)c(NC(=O)N[C@@H]2c3ccccc3C3(CC3)[C@H]2O)c1C` [Example 59, 215-(3-(trans-2′-hydroxy-2′,3′-dihydrospiro[cyclopropane-1,1′-inden]-3′-yl)ureido)-N,4-dimethyl-1-phenyl-1H-pyrazole-3-carboxamide], the IC50 was under 100 nM.

In the case of `Cc1c(-c2cnn(C)c2)nn(-c2ccccc2)c1NC(=O)N[C@@H]1c2ccccc2C[C@H]1O` [Example 65, 1-(1′,4-dimethyl-1-phenyl-1H,1′H-[3,4′-bipyrazol]-5-yl)-3-((1R,2R)-2-hydroxy-2,3-dihydro-1H-inden-1-yl)urea], the IC50 was under 100 nM.

In the case of `Cc1ncc(-c2nn(-c3ccccc3)c(NC(=O)N[C@@H]3c4ccccc4C[C@H]3O)c2C)cn1` [Example 66, 1-((1R,2R)-2-hydroxy-2,3-dihydro-1H-inden-1-yl)-3-(4-methyl-3-(2-methylpyrimidin-5-yl)-1-phenyl-1H-pyrazol-5-yl)urea], the half-inhibitory concentration (IC50) is under 100 nM.

In the case of `CCOc1ncc(-c2nn(-c3ccccc3)c(NC(=O)N[C@@H]3c4ccccc4C[C@H]3O)c2C)cn1` [Example 67, 1-(3-(2-ethoxypyrimidin-5-yl)-4-methyl-1-phenyl-1H-pyrazol-5-yl)-3-((1R,2R)-2-hydroxy-2,3-dihydro-1H-inden-1-yl)urea], the IC50 is under 100 nM.

Regarding `COc1ncc(-c2nn(-c3ccccc3)c(NC(=O)N[C@@H]3c4ccccc4C[C@H]3O)c2C)cn1` [Example 68, 1-((1R,2R)-2-hydroxy-2,3-dihydro-1H-inden-1-yl)-3-(3-(2-methoxypyrimidin-5-yl)-4-methyl-1-phenyl-1H-pyrazol-5-yl)urea], the 50% inhibitory concentration (IC50) is under 100 nM.

Regarding `Cc1c(-c2cc(C)c(=O)n(C)c2)nn(-c2ccccc2)c1NC(=O)N[C@@H]1c2ccccc2C[C@H]1O` [Example 69, 1-(3-(1,5-dimethyl-6-oxo-1,6-dihydropyridin-3-yl)-4-methyl-1-phenyl-1H-pyrazol-5-yl)-3-((1R,2R)-2-hydroxy-2,3-dihydro-1H-inden-1-yl)urea], the concentration for half-maximal inhibition (IC50) is under 100 nM.

As to `Cc1c(-c2cnn(C)c2)nn(-c2ccccc2)c1NC(=O)N[C@@H]1c2cc(Cl)ccc2C[C@H]1O` [Example 70, 1-((1,2-trans)-6-chloro-2-hydroxy-2,3-dihydro-1H-inden-1-yl)-3-(1′,4-dimethyl-1-phenyl-1H,1′H-[3,4′-bipyrazol]-5-yl)urea], the half-maximal inhibitory concentration (IC50) was under 100 nM.

`Cc1ncc(-c2nn(-c3ccccc3)c(NC(=O)N[C@@H]3c4cc(Cl)ccc4C[C@H]3O)c2C)cn1` [Example 71, 1-((1,2-trans)-6-chloro-2-hydroxy-2,3-dihydro-1H-inden-1-yl)-3-(4-methyl-3-(2-methylpyrimidin-5-yl)-1-phenyl-1H-pyrazol-5-yl)urea]: the IC50 is under 100 nM.

As for `Cc1c(-c2cnn(C)c2)nn(-c2ccccc2)c1NC(=O)N[C@@H]1c2ccccc2C(C)(C)[C@H]1O` [Example 72], the IC50 was under 100 nM.

In the case of `Cc1ncc(-c2nn(-c3ccccc3)c(NC(=O)N[C@@H]3c4ccccc4C(C)(C)[C@H]3O)c2C)cn1` [Example 73, 1-((1,2-trans)-2-hydroxy-3,3-dimethyl-2,3-dihydro-1H-inden-1-yl)-3-(4-methyl-3-(2-methylpyrimidin-5-yl)-1-phenyl-1H-pyrazol-5-yl)urea], the IC50 is under 100 nM.

`Cc1c(OC[C@H]2CN(C)CCO2)nn(-c2ccccc2)c1NC(=O)N[C@@H]1c2ccccc2C(C)(C)C[C@H]1O` [Example 74, 1-((1R,2R)-2-hydroxy-4,4-dimethyl-1,2,3,4-tetrahydronaphthalen-1-yl)-3-(4-methyl-3-(((R)-4-methylmorpholin-2-yl)methoxy)-1-phenyl-1H-pyrazol-5-yl)urea]: the IC50 is under 100 nM.
